Results from US20240279215A1 (Cytokinetics, Incorporated, priority 2022, published 2024).
Where “and” joins values, the source holds several entries; their conditions need not be identical. Equal values may be shown once. Read-outs that look alike come from different tables or passages of the source.

Experiments:
P-gp (MDR1) = experiment: MDR1-MDCK bidirectional permeability assay; conditions: dog, MDCK-MDR1, pH 7.4, Efflux ratio
Description: (§1) A bidirectional permeability assay using Madin Darby canine kidney cells expressing multi-drug resistance gene 1 (MDCK-MDR1) is routinely used to evaluate discovery compounds' BBB permeability and drug efflux toward the advancement of discovery compounds with brain penetration.
(§2) MDCK-MDR1 Cells (NIH cell line) were obtained from the National Institutes of Health. […] Cell culture medium was replaced every other day, beginning no later than 24 hours after the initial plating. […] The dosing solution concentration was 1 μM for the test article in the assay buffer. Cell monolayers were dosed on the apical side (A-to-B) or basolateral side (B-to-A) and incubated at 37° C. under an atmosphere of 5% CO2 in a humidified incubator. Samples were taken from the donor and receiver chambers at 120 minutes. Each determination was performed in duplicate. After the 120 min transport period, the flux of lucifer yellow was also measured for each monolayer to ensure no damage was inflicted to the cell monolayers during the transport period. All samples were assayed by LC-MS/MS (Waters XSelect HSS T3 C18, 2.5 m, 2.1×50 mm) using electrospray ionization with 0.1% formic acid in water (mobile phase A) and 0.1% formic acid in acetonitrile (mobile phase B) as mobile phases. The apparent permeability coefficient (Papp), in units of cm per second, was calculated for MDCK-MDR1 Cells (NIH cell line) drug transport assays using the following equation:
(§3) Where VA is the volume (in mL) in the acceptor well, Area is the surface area of the membrane (0.143 cm^2 for Transwell-96 Well Permeable Supports), and time is the total transport time in seconds.
(§4) The leakage of Lucifer Yellow (LY), in unit of percentage (%), can be calculated using the following equation:
(§5) LY leakage of <1% is acceptable to indicate the well-qualified MDCK-MDR1(NIH) monolayer.

[1] = tested on: MDCK-MDR1 cells (P-gp, MDR1); experiment: MDR1-MDCK bidirectional permeability assay; conditions: for PappAB: A to B
Description: as §1, §2, §3, §4, §5

human NAMPT = human NAMPT (Homo sapiens (Human), UniProt P43490); experiment: NMN fluorescence biochemical assay (human recombinant NAMPT enzyme assay)
Chain of human NAMPT (P43490 whole entry): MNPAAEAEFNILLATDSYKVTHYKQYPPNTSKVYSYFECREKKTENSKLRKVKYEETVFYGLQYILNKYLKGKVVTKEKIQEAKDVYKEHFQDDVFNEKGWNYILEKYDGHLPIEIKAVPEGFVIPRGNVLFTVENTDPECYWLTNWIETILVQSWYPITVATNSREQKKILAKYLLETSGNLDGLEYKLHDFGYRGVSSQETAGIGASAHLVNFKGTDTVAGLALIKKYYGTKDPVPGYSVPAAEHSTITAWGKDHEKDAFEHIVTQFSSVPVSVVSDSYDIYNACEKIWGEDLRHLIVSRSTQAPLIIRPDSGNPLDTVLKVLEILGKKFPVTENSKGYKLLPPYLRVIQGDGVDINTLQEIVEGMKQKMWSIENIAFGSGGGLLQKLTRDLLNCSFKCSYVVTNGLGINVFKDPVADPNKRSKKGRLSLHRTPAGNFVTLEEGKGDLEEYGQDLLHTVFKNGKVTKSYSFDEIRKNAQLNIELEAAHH
Method in brief: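 Activation of recombinant human NAMPT (6 nM) was tested with 2.5 mM ATP, 20 μM PRPP and 150 μM nicotinamide in 50 mM HEPES pH 7.2 for 60 min at ambient temperature. NMN was derivatized with acetophenone/KOH/formic acid and read by fluorescence (355/460 nm) after 40 min.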

[2] = Plasma protein binding (PPB), mouse; type: in vitro ADME; conditions: mouse, plasma
[3] = Brain exposure assay in mice (brain-to-plasma ratio after oral administration); type: in vivo; conditions: mouse, 100 mg/kg
Description: This protocol was used to determine the brain-to-plasma ratio in vivo in mice post oral administration of test compounds. Mice (C57BL/6JNIFDC, male, non-fasted, 18-30 g body weight, 3 mice for each timepoint) were dosed orally at 100 mg/kg (10 mg test compound/mL formulation, 10 mL dosing volume/kg) with plasma and brain tissues obtained at 2- and 6-hours post-administration. The oral dosing formulation composition used was 10% N,N-dimethylacetamide:20% propylene glycol:70% of 40% aqueous 2-hydroxypropyl-β-cyclodextrin.
For the isolation of mouse plasma from dosed animals, approximately 0.3 mL blood was collected by orbital sinus bleed and centrifuged (4000 g, 5 minutes, 4° C.). The plasma samples were stored frozen at −75±15° C. until further processing.
For the isolation of brain tissue from dosed animals, whole brain tissues were collected from euthanized and fully exsanguinated mice. The tissues were quickly rinsed with distilled water, dried with absorbent paper, followed by rapid freezing on dry ice and then storage at −75±15° C. until further processing. Brain tissue samples obtained from frozen whole brain were weighed and the samples homogenized using three equivalents of distilled water (3 mL per gram of brain tissue).
Standard and quality control samples were prepared by adding 3 μL of the test compound dimethyl sulfoxide (DMSO) stock solutions to blank plasma (30 μL) and blank brain homogenate aliquots (30 μL). Standard curves for brain and plasma were generated over a 1 to 1,000 ng/g test compound concentration range. For the extraction of test compound from plasma and brain tissue homogenate samples, a solution of acetonitrile containing internal standard ([…]) was added to 30 μL of samples with added 3 μL of DMSO. The samples then were vortex-mixed followed by centrifugation at 4000 rpm (4° C., 15 minutes). The resultant supernatants were diluted 5-fold with distilled water. Finally, 10 μL of the diluted supernatant was injected onto an LC-MS/MS instrument for quantitative analysis of test compound.
The brain-to-plasma ratio was calculated by the relationship: Brain-to-plasma ratio=Cbrain/Cplasma; where Cb is the concentration in brain tissue and Cp is the concentration in plasma at the corresponding timepoint.
Kp is the total brain-plasma concentration ratio; Kp=Cbrain/Cplasma.
Kp, uu is the unbound brain-to-plasma partition coefficient (Kp,uu,brain). It is a measure of the extent of the distribution equilibrium of a compound between the unbound (free) fractions in brain and in blood plasma; Kp, uu brain=Cu, brain/Cu, plasma.

[4] = Brain tissue binding, mouse; type: in vitro ADME; conditions: mouse, brain tissue

efflux ratio at 120 min, 1 μM (P-gp (MDR1))	PappAB [1]	AC1.4 Human (human NAMPT)	EC50 (human NAMPT)	other results	SMILES
5.41	9.77	0.14 µM	32.6 µM		CC(=O)N1CCC(c2ccc(NC(=O)OCc3cnco3)cc2)CC1 [Compound 8, 1,3-oxazol-5-ylmethyl N-[4-(1-acetylpiperidin-4-yl)phenyl]carbamate]
3.74	2.79	0.30 µM	2 µM		Cc1ccc(C(=O)NCc2ccc(NC(=O)OCc3ccc(Cl)cc3)cc2)cn1 [Compound 21, (4-chlorophenyl)methyl N-(4-{[(6-methylpyridin-3-yl)formamido]methyl}phenyl)carbamate]
2	6.30	0.32 µM	2.76 µM		COC(=O)N1CCC(Cc2ccc(NC(=O)OCc3ccncc3)cc2)CC1 [Compound 23, methyl 4-(4-(((pyridin-4-ylmethoxy)carbonyl)amino)benzyl)piperidine-1-carboxylate]
1.99	7.68	0.36 µM	5.25 µM	fraction unbound [2]: 0.037; concentration at 6 h ([3]; male, C57BL/6JNIFDC, brain, oral, 6 hr, read-out: Cbrain, free): 70 nM; concentration at 6 h ([3]; male, C57BL/6JNIFDC, brain, oral, 6 hr, read-out: Cbrain, total): 1500 nM; concentration at 6 h ([3]; male, C57BL/6JNIFDC, plasma, oral, 6 hr, read-out: Cplasma, free): 220 nM; concentration at 6 h ([3]; male, C57BL/6JNIFDC, plasma, oral, 6 hr, read-out: Cplasma, total): 5900 nM; Kp at 2 h ([3]; male, C57BL/6JNIFDC, oral, 2 hr, total brain-plasma concentration ratio): 0.29; Kp uu at 2 h ([3]; male, C57BL/6JNIFDC, oral, 2 hr, unbound brain-to-plasma partition coefficient): 0.41; Kp at 6 h ([3]; male, C57BL/6JNIFDC, oral, 6 hr, total brain-plasma concentration ratio): 0.25; Kp uu at 6 h ([3]; male, C57BL/6JNIFDC, oral, 6 hr, unbound brain-to-plasma partition coefficient): 0.32; Cbrain, free (μM) ([3]; 2 hr): 0.64, μM; Cbrain, total (μM) ([3]; 2 hr): 12.0, μM; Cplasma, free (μM) ([3]; 2 hr): 1.55, μM; Cplasma, total (μM) ([3]; 2 hr): 42.1, μM; fraction unbound [4]: 0.053	CN(C)S(=O)(=O)N1CCC(Cc2ccc(NC(=O)OCc3cnco3)cc2)CC1 [Compound 27, oxazol-5-ylmethyl (4-((1-(N,N-dimethylsulfamoyl)piperidin-4-yl)methyl)phenyl)carbamate]
3.32	5.57	0.38 µM	21 µM		CN(C)C(=O)N1CCC(CCc2ccc(NC(=O)OCc3cnco3)cc2)CC1 [Compound 32, oxazol-5-ylmethyl (4-(2-(1-(dimethylcarbamoyl)piperidin-4-yl)ethyl)phenyl)carbamate]
1.93	3.38 and 3.4	0.43 µM	2.4 µM	Efflux ratio [1]: 1.9	CC(=O)N1CCC(Cc2ccc(NC(=O)OCc3ccc(Cl)cc3)cc2)CC1 [Compound 40, 4-chlorobenzyl (4-((1-acetylpiperidin-4-yl)methyl)phenyl)carbamate]
0.92	5.39 and 5.4	0.45 µM	4.56 µM		O=C(Nc1ccc(CC2CCN(C3COC3)CC2)cc1)OCc1ccc(Cl)cc1 [Compound 43, 4-chlorobenzyl (4-((1-(oxetan-3-yl)piperidin-4-yl)methyl)phenyl)carbamate]
